# Experimental data reported in ChEMBL document CHEMBL1201862, “PubChem BioAssay data set” (2004).
# Activity calls are given as the source filed them.
# Assays:
# Exodeoxyribonuclease V = Exodeoxyribonuclease V (Escherichia coli (strain K12), UniProt P04993+P07648+P08394); experiment: E. coli RecBCD inhibitors, dose response, counter-screen for AddAB inhibitor project, absorbance, V66 E. coli, mutant T4 phage (AID 492957); type: functional, cell-based, Escherichia coli str. K-12 substr. MG1655
# [1] = Counterscreen for AddAB inhibitors: absorbance-based bacterial cell-based high throughput dose response assay for inhibitors of bacterial viability. [Related pubchem assays (depositor defined):AID435030, AID449728, AID449731, AID488942, AID488955, AID488956]; type: functional
# [2] = NIH-3T3 fibroblast cytotoxicity, dose response, cytotoxicity control, cell-based, fluorescence, Alamar Blue, secondary assay (AID 2327); type: functional;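 also: NIH-3T3 mouse fibroblasts cultured with fluconazole at 8 µg/mL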
# [3] = C. albicans growth with fluconazole, confirmation, fluorescence, retest (AID 2467); type: functional, cell-based
# [4] = molecular target: Lysine-specific demethylase 4C (Homo sapiens, UniProt Q9H3R0); experiment: GASC-1 (JMJD2C) histone demethylase inhibitors, dose response, biochemical, DELFIA europium, cherry-picked samples (AID 488835); type: functional
# Lysine-specific demethylase 4C, sequence (Q9H3R0 whole entry): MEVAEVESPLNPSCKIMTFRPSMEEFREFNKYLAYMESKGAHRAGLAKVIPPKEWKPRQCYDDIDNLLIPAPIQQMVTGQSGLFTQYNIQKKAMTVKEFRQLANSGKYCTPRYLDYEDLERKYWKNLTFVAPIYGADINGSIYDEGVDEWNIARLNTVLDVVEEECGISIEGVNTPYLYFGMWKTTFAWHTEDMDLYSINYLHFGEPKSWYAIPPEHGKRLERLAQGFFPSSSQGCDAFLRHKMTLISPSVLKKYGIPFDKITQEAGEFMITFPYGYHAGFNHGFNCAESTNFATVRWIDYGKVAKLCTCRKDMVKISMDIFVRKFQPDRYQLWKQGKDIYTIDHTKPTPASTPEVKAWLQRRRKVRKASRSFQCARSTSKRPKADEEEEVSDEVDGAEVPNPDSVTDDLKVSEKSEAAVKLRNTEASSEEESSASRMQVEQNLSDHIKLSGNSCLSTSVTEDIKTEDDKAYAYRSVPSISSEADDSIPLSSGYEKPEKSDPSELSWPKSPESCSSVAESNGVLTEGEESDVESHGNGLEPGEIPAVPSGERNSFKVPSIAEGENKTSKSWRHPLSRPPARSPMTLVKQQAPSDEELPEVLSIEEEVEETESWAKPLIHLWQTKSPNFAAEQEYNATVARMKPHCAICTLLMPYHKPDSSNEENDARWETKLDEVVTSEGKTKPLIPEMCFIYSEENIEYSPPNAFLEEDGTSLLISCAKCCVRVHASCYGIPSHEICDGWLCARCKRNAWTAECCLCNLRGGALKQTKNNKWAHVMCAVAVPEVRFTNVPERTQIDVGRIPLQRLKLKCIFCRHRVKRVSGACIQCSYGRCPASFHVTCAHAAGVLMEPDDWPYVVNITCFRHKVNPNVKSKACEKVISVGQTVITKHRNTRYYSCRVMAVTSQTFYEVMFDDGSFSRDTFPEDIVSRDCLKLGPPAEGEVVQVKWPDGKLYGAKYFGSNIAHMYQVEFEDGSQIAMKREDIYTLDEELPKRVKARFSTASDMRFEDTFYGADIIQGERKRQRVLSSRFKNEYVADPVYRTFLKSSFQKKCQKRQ
# [5] = inhibitors of firefly luciferase expression or activity, dose response, H4 neuroglioma cells, luminescence (AID 1990); type: functional, cell-based
# [6] = luciferase reporter signal reduction – luminescence, H4-C neuroglioblastoma cells, dose response (AID 2458); type: functional, cell-based;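 also: H4 neuroglioblastoma cells stably carrying a luciferase reporter gene fusion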
# cells = type: functional, cell-based
# [7] = Luminescence Cell-Based Dose Response HTS to Identify Inhibitors of 5'UTR Stem-Loop Driven Prion Protein mRNA Translation in H4 Neuroglioblastoma Cells. [Related pubchem assays: 1827 (Project Summary), 1813 (Primary HTS)]; type: functional
# [8] = inhibitors of SNCA 5'UTR-driven reporter translation, confirmation, H4 neuroglioma cells, luminescence (AID 1988); type: functional, cell-based
# [9] = inhibitors of SNCA 5'UTR-driven translation, confirmation, luminescence, H4 neuroglioblastoma cells, dose confirmation (AID 2454); type: functional, cell-based;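 also: H4 neuroglioblastoma cells carrying an alpha-synuclein 5'UTR luciferase reporter; potency for inhibition of the luciferase signal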
# [10] = growth induction of Burl-1 ts yeast mutant, dose response, counter-screen for SUMOylation pathway inhibitor project, whole organism, S. cerevisiae, luminescence (AID 463199); type: functional
# Large T antigen = Large T antigen (Simian virus 40, UniProt P03070); type: functional, Betapolyomavirus macacae;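 also: Confirmatory-stage PubChem screen for compounds that inhibit SV40 T antigen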
# ORF 73 = ORF 73 (Human herpesvirus 8, UniProt O40947); experiment: inhibitors of C-LANA binding to LBS DNA, dose response, biochemical, fluorescence polarization, cherry-picked samples (AID 504725); set-up: species or system Human gammaherpesvirus 8;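 also: fluorescence polarization of a labeled DNA duplex reporting LANA DNA binding; potency is for inhibitors that block LANA binding to the DNA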
# [11] = molecular target: Intestinal-type alkaline phosphatase (Homo sapiens, UniProt P09923); experiment: activation of human intestinal alkaline phosphatase – biochemical, dose response (AID 488873); type: functional
# [12] = molecular target: Intestinal-type alkaline phosphatase (Mus musculus, UniProt P24822); experiment: mouse intestinal alkaline phosphatase activators, dose response, biochemical, luminescence, uHTS hits (AID 488783); type: functional
# [13] = molecular target: T1, Alkaline phosphatase, tissue-nonspecific isozyme (Homo sapiens, UniProt P05186); experiment: TNAP enzyme activators, dose response, selectivity assay for mouse IAP activator project, biochemical, TNAP isozyme, mouse IAP uHTS hits (AID 488880); type: functional
# T1 sequence (P05186 whole entry): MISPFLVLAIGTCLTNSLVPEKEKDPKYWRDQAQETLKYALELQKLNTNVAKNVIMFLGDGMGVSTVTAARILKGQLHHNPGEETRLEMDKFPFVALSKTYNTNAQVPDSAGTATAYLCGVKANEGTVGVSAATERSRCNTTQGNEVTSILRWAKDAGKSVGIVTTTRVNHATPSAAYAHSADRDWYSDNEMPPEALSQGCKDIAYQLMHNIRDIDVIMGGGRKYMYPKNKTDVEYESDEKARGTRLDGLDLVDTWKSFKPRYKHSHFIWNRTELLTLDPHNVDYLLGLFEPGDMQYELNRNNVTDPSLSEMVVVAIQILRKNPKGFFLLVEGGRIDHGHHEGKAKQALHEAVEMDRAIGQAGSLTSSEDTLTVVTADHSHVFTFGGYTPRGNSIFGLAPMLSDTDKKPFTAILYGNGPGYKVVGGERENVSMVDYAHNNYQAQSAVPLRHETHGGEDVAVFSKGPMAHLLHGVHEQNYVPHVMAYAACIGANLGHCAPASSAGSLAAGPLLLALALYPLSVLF
# Cysteine protease ATG4B = molecular target: T2, Cysteine protease ATG4B (Homo sapiens, UniProt Q9Y4P1); type: functional;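 also: Fluorescence-based dose-response confirmation assay measuring inhibition of ATG4B activity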
# T2 sequence (Q9Y4P1 whole entry): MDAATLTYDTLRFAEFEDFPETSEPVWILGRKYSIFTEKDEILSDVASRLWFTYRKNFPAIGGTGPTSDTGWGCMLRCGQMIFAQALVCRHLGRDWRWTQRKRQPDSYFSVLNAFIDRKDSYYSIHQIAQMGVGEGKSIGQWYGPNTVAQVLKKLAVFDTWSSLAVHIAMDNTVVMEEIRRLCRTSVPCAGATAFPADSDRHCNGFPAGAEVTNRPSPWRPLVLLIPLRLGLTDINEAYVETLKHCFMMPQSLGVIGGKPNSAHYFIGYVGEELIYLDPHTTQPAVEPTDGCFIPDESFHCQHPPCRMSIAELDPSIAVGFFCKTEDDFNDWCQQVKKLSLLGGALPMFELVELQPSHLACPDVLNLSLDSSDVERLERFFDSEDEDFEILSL
# Phospholipase A2 = Phospholipase A2 (Homo sapiens, UniProt P04054); type: functional;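 also: confirmatory dose-response counterscreen on phospholipase A2, testing hits that came from an ultra-high-throughput screen for ATG4B inhibitors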
# Vero = Vero cell cytotoxicity, cytotoxicity control for flavivirus capping enzyme inhibitors (AID 588742); type: functional; conditions: Chlorocebus sabaeus
# Genome polyprotein = Genome polyprotein (dengue virus type 2, UniProt P29990); experiment: Dengue-2 NS5 methyltransferase inhibitors, primary screen, biochemical, confirmation dose response (AID 588689); type: functional
# [14] = molecular target: 26S proteasome non-ATPase regulatory subunit 14 (Homo sapiens, UniProt O00487); experiment: inhibition of proteasome subunit RPN11 – biochemical, fluorescence polarization, uHTS hits, confirmation (AID 602368); type: functional
# [15] = molecular target: 72 kDa type IV collagenase (Homo sapiens, UniProt P08253); experiment: Dose Response validation of uHTS RPN11 inhibitor hits using a MMP-2 Fluorescence assay.; type: functional
# Prothrombin = Prothrombin (Bos taurus, UniProt P00735); experiment: thrombin inhibition, dose response, biochemical, fluorescence polarization, uHTS hits (AID 602369); type: functional
# [16] = molecular target: G-protein coupled receptor 55 (Homo sapiens, UniProt Q9Y2T6); experiment: GPR55 antagonists, SAR follow-up, counter-screen for GPR35 antagonist project, imaging, image-based (AID 2397); type: functional
# [17] = molecular target: T3, Nucleotide-binding oligomerization domain-containing protein 1 (Homo sapiens, UniProt Q9Y239); experiment: SAR analysis of compounds that inhibit NOD1 - Set 3. [Related pubchem assays (depositor defined):AID1566, AID1575, AID1578, AID1849, AID1852, AID2333, AID2335, AID2466]; type: functional
# T3 sequence (Q9Y239 whole entry): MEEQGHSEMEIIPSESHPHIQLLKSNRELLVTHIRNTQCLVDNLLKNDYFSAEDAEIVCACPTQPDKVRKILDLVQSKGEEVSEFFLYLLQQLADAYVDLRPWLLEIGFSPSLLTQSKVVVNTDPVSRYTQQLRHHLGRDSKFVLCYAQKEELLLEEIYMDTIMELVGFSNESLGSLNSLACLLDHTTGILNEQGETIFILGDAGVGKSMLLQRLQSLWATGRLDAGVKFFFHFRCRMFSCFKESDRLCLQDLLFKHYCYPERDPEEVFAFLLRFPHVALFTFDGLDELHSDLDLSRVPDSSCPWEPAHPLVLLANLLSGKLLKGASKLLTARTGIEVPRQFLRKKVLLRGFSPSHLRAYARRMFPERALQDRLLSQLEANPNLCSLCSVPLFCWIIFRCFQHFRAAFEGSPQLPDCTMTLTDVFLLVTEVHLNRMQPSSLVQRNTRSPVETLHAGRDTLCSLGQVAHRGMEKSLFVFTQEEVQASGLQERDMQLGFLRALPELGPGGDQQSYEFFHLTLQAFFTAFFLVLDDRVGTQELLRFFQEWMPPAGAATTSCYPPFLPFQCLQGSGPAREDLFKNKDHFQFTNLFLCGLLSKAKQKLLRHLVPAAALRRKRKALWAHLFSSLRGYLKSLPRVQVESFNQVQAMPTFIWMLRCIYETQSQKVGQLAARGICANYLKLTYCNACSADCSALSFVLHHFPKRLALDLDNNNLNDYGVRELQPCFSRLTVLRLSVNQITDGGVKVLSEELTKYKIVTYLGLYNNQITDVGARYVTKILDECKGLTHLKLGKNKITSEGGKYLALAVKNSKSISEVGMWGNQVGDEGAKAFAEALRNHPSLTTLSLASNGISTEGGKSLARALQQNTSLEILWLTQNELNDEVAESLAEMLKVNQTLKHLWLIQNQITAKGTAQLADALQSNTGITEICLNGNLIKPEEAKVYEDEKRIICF
# Tumor necrosis factor = Tumor necrosis factor (Homo sapiens, UniProt P01375); experiment: TNFa-triggered NF-kB activation inhibitors, SAR follow-up, cell-based, set 3 (AID 2801); type: functional
# HEK293 [18] = experiment: SAR analysis of compounds that are cytotoxic to HEK293 - Set 3. [Related pubchem assays (depositor defined):AID1575, AID1578, AID1848, AID1849, AID2001, AID2333, AID2334, AID2335, AID2337, AID2469]; type: functional, cell-based; conditions: Homo sapiens
# [19] = molecular target: Nucleotide-binding oligomerization domain-containing protein 2 (Homo sapiens, UniProt Q9HC29); experiment: NOD2 signaling inhibitors, analog potency, SAR follow-up, cell-based, set 3 (AID 2799); type: functional
# Nucleotide-binding oligomerization domain-containing protein 2, sequence (Q9HC29 whole entry, the tested form may be a part): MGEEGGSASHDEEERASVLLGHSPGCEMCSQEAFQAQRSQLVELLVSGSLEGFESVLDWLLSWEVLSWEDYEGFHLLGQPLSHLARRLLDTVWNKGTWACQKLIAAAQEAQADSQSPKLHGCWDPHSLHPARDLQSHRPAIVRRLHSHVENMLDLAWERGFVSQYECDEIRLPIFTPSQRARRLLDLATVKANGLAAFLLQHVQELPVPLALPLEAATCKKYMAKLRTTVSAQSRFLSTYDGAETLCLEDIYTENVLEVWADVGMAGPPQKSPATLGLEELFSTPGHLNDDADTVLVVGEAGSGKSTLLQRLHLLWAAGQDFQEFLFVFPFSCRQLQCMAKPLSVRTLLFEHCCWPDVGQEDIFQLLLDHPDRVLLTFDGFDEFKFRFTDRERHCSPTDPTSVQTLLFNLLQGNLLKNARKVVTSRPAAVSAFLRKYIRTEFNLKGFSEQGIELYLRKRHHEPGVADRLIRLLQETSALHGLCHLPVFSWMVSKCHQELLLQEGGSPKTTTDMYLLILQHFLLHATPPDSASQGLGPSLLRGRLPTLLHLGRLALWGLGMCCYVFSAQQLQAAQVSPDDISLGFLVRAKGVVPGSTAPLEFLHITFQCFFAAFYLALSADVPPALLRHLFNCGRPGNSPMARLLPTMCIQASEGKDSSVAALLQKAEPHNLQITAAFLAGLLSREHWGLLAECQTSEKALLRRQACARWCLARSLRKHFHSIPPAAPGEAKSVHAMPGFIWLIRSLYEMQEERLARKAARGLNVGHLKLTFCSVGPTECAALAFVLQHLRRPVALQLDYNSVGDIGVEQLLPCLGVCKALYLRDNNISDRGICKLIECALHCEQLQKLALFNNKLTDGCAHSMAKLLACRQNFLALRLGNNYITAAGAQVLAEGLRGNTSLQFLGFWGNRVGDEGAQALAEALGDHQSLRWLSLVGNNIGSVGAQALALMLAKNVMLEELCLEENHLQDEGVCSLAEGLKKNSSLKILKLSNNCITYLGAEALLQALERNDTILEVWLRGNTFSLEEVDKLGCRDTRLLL
# Jurkat = experiment: SAR Analysis of small molecule inhibitors of […] specific antigen receptor-induced NF-kB activation in a Jurkat cell line using a luminescence assay - Set 3. [Related pubchem assays (depositor defined):AID435022, AID435025, AID465]; type: functional, cell-based; conditions: Homo sapiens
# HEK293 [20] = experiment: SAR Analysis of small molecule inhibitors of B-cell specific antigen receptor-induced NF-kB activation in a HEK-293T cell line using a luminescence assay - Set 2. [Related pubchem assays (depositor defined):AID435022, AID435025, AID489021]; type: functional, cell-based; conditions: Homo sapiens
# HEK293 [21] = experiment: cytotoxicity in HEK293T NF-kB-Luc cells, SAR follow-up, cytotoxicity control for NF-kB activator project, cell-based, resazurin fluorescence (AID 493251); type: functional; conditions: Homo sapiens
# [22] = inhibitors of cytokine-induced nitrite release, dose response, cell-based, Griess absorbance, INS-1E, dry powder, set 3 (AID 488870); type: functional; conditions: Rattus norvegicus
# Fatty acid synthase [23] = molecular target: T4, Fatty acid synthase (Homo sapiens, UniProt P49327); experiment: FAS thioesterase domain inhibitors, dose response, biochemical, endpoint fluorescence intensity, uHTS hits (AID 624327); type: functional;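 also: fluorescence from hydrolysis of an O-methyl fluorescein acyl ester substrate by the enzyme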
# T4 sequence (P49327 whole entry, the tested form may be a part): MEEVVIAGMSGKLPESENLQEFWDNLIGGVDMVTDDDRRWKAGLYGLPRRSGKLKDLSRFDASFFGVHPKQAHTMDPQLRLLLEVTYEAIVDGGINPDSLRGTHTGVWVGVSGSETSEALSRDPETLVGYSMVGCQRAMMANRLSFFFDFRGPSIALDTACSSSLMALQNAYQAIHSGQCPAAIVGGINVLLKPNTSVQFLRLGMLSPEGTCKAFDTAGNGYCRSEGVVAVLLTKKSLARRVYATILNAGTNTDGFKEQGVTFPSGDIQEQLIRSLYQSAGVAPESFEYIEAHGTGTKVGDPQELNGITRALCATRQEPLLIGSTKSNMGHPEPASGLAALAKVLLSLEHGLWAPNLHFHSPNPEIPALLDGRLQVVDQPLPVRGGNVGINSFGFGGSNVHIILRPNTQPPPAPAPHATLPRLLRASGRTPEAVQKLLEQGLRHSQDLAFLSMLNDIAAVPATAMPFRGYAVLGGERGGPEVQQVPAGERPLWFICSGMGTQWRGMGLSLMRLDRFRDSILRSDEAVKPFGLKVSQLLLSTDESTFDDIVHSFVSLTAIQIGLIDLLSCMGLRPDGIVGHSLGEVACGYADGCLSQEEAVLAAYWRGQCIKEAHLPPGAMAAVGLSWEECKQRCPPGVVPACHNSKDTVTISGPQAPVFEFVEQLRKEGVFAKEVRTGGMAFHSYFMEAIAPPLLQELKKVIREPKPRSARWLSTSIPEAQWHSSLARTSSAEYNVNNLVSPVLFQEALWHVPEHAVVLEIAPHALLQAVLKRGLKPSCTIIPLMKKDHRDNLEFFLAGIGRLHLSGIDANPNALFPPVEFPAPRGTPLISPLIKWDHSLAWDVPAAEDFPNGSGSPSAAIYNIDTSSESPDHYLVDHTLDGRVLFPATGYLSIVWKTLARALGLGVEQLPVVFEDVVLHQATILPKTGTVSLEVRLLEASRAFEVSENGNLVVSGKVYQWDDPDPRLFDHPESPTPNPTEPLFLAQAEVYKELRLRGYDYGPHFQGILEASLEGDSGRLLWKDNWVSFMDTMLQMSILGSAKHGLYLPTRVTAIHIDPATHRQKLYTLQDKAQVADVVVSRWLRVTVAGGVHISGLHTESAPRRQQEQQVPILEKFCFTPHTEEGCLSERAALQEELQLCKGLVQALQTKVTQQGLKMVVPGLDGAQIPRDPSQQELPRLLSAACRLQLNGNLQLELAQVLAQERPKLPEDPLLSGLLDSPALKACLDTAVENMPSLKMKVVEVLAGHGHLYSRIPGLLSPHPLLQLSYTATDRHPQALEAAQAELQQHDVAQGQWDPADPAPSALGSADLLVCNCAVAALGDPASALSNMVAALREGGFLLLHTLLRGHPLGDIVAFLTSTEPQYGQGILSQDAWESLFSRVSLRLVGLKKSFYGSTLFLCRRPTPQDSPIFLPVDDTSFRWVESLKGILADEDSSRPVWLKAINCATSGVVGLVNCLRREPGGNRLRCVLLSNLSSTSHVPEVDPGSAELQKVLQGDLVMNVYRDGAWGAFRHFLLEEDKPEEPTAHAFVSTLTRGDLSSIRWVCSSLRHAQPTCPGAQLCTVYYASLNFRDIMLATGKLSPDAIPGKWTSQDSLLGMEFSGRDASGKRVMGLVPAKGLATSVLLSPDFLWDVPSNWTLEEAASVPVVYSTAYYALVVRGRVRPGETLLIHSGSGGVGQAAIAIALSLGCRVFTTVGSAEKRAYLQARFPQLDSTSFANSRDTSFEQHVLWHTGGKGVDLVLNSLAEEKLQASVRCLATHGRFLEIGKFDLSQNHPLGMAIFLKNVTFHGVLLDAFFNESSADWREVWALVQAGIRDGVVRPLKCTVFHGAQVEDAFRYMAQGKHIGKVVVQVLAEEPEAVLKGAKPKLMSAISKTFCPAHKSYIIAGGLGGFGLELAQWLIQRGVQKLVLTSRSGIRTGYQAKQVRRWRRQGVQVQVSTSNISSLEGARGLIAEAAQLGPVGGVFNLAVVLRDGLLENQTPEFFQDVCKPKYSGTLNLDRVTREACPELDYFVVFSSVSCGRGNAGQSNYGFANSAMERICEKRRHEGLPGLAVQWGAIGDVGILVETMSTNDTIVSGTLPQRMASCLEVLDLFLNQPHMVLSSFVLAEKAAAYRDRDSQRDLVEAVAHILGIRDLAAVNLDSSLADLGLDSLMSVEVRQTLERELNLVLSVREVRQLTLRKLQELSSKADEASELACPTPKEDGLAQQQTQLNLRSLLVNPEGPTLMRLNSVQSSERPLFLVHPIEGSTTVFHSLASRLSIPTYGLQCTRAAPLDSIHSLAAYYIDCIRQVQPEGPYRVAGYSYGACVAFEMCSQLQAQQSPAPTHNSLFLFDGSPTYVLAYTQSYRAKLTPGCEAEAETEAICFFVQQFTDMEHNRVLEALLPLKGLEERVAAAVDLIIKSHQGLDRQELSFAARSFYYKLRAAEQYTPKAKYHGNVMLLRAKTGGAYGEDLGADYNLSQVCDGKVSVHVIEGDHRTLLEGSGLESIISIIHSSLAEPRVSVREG
# Fatty acid synthase [24] = molecular target: T4, Fatty acid synthase; experiment: FAS thioesterase domain inhibitors, dose response, biochemical, kinetic fluorescence intensity (AID 624326); type: functional;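 also: rate of fluorescence rise from hydrolysis of a fluorogenic O-methyl fluorescein ester substrate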
# Cytochrome P450 2D6 = Cytochrome P450 2D6 (Homo sapiens, UniProt P10635);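 also: CYP2D6 member of a cytochrome P450 panel assay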
# Cytochrome P450 2D6, sequence (P10635 whole entry): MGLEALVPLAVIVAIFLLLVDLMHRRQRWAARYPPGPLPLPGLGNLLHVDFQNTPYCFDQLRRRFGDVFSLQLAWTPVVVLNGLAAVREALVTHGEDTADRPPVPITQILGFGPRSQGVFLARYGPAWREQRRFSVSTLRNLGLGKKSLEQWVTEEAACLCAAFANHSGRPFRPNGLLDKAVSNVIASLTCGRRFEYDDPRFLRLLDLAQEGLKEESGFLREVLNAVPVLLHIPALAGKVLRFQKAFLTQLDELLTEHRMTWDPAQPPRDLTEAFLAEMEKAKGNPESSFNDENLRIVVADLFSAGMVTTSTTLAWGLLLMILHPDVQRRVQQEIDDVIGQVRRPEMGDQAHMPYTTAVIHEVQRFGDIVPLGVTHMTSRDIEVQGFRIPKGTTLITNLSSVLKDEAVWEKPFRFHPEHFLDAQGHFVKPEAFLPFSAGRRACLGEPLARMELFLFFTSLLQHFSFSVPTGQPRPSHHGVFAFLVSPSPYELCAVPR
smiles,measurement,setting,value
O=C(NNC(=O)c1cc2ccccc2cc1O)Nc1ccc(Br)cc1,IC50,Exodeoxyribonuclease V,> 119 µM (inactive)
same,IC50,[1],> 119 µM (inactive)
FC(F)(F)c1ccccc1N=C(S)NN=C1CCCCCC1,EC50,[2],54 µM (active)
same,EC50,[3],> 38 µM (not active)
same,AC50,[4],6.8 µM (active)
COc1ccc2cc3c(N)nn(C(=O)c4ccccc4Cl)c3nc2c1,EC50,[5],< 0.1 µM (active)
same,EC50,[6],1.43 µM (active)
same,EC50,cells,0.736 µM (active)
same,EC50,[7],< 0.1 µM (active)
same,EC50,[8],9.14 µM (active)
same,EC50,[9],> 12 µM (not active)
same,AC50,[10],47.8 µM (active)
CC(C(=O)Nc1ccc(C(=O)O)c(O)c1)N1C(=O)/C(=C\c2ccco2)SC1=S (stereo unspecified),IC50,Large T antigen,47.9 µM (active)
same,AC50,ORF 73,66.3 µM (active)
same,EC50,[11],50.8 µM (active)
same,EC50,[12],51.2 µM (active)
same,EC50,[13],62.2 µM (active)
same,IC50,Cysteine protease ATG4B,11 µM (active)
same,IC50,Phospholipase A2,26.6 µM (inactive)
same,CC50,Vero,> 40 µM (active)
same,IC50,Genome polyprotein,79.4 µM (active)
same,IC50,[14],14.6 µM (active)
same,IC50,[15],0.968 µM (active)
same,IC50,Prothrombin,98.5 µM (active)
Cc1c(C(=O)Nc2ccc3c(c2)OCCO3)sc2ncnc(N3CCCCC3C)c12 (stereo unspecified),IC50,[16],4.95 µM (active)
CCCCn1c(SCCCc2ccccc2)nc2c1c(=O)[nH]c(=O)n2C,IC50,[17],> 20 µM (inactive)
same,IC50,Tumor necrosis factor,17.7 µM (active)
same,IC50,HEK293 [18],> 20 µM (inactive)
same,IC50,[19],11.9 µM (active)
CCOc1ccc(-c2nc(CSCC(=O)NCCOC)c(C)o2)cc1,IC50,Jurkat,> 80 µM (inactive)
same,IC50,HEK293 [20],> 80 µM (inactive)
same,IC50,HEK293 [21],> 80 µM (inactive)
COc1ccc(NC(=O)N(C)C[C@@H]2Oc3c(NC(=O)Nc4cccc5ccccc45)cccc3C(=O)N([C@@H](C)CO)C[C@H]2C)cc1,AC50,[22],43.7 µM (active)
CC(C)(C)c1ccc(OC(=O)Nc2ccc(O)c(C(=O)O)c2)cc1,IC50,Fatty acid synthase [23],9.66 µM (active)
same,IC50,Fatty acid synthase [24],11.7 µM (active)
same,AC50,Cytochrome P450 2D6,inconclusive
